Experiments:
[1] = Human liver microsome stability; type: in vitro ADME; conditions: human liver microsomes 0.5 mg/mL, 37° C., 60 minutes; for half-life at 2 μM: read-out: T1/2 (microsomal); for microsomal CLint at 2 μM: read-out: in vitro CLint (microsomal)
Protocol: The tested compound was incubated in duplicate with human liver microsomes (0.5 mg/mL) at 37° C. These incubations were carried out at a final test article concentration of 2 μM over a total incubation period of 60 minutes. Samples were taken at 0, 15, 30, 45 and 60 min and the reaction terminated by addition of 4 volumes of acetonitrile containing internal standard (100 nM alprazolam, 200 nM imipramine, 200 nM labetalol and 2 μM ketoprofen). Diclofenac was used as a positive control in this study. The samples were analyzed by UPLC-MS/MS to determine the concentration of the test compound and the percent remaining, intrinsic clearance (in vitro CLint) and half-life (t1/2) values were calculated.
(§1) Chromatographic analyses were performed on a Shimadzu UPLC apparatus (Kyoto, Japan) consisting of a gradient pump (model LC-30AD), an automatic injector (model HTC PAL System) and an on-line degasser (model DGU-20A5R). Detection was a triple quadrupole tandem mass spectrometer equipped with a turbo ion spray interface (API 4000/Triple Quad 4500/Triple Quad 5500/Triple Quad 6500). Data acquisition and integration were carried out with LC-MS software (Analyst 1.6) linked directly to the LC-MS/MS system. Chromatographic separations were achieved on a XSelect Hss T3 2.5μ (2.1×30 mm) Column. The mobile phase was 0.1% formic acid in water (A) and 0.1% formic acid in acetonitrile (B). The flow rate was 1.0 mL/min and column was maintained at 40° C.
(§2) Half-life (T1/2) data is measured in minutes, and in Table B2, in both microsomal and hepatic assays, the data is grouped into categories of: • A T1/2=1000+ • B T1/2=500 to 1000 • C T1/2=100 to 500 • D T1/2<100
(§3) In vitro clearance (CLint) data is measured in μL/min/mg prot, and in Table B2, in both microsomal and hepatic assays, the data is grouped into categories of: • A CLint<1 • B CLint=1 to 10 • C CLint=10 to 20 • D CLint=20+

[2] = Human hepatocyte stability; type: in vitro ADME; conditions: human hepatocytes 0.5×10^6 cells/mL, 120 minutes; for half-life at 1 μM: read-out: T1/2 (hepatic); for microsomal CLint at 1 μM: read-out: in vitro CLint (hepatic)
Protocol: The tested compound was incubated in duplicate with incubation media (Williams' Medium E with 1× GlutaMAX) containing human hepatocytes (0.5×10^6 cells/mL). These incubations were carried out at a final test concentration of 1 μM over a total incubation period of 120 minutes. Samples were taken at 0, 15, 30, 60, 90 and 120 min and the reaction was terminated by addition of acetonitrile containing internal standard (100 nM alprazolam, 200 nM labetalol, 200 nM caffeine and 200 nM diclofenac). Verapamil was used as the positive control in this study. The samples were analyzed by UPLC-MS/MS to determine the concentration of the tested compound and the percentage remaining, intrinsic clearance (in vitro CLint) and half-life (t1/2) values were calculated.
as §1, §2, §3

[3] = target: T1, EP2 receptor (Homo sapiens, UniProt P43116); assay: EP2 potency assay (cAMP TR-FRET, LANCE Ultra cAMP kit, antagonism of prostaglandin E2 at EC80); type: cell-based; conditions: CHO-K1 cells transfected with EP2 receptor
T1 construct: expressed in transfected cells; host or cells: CHO-K1 cells (ATCC), transiently transfected with FuGENE 6
Protocol: Compound potency was measured using a cAMP TR-FRET assay.
CHO-K1 cells (ATCC) were seeded at a density of 9.75×10^5 in 6 cm plates, and then on the following day cell media was changed to Opti-Mem I reduced serum media (Gibco), and transfected with a plasmid for expression of the EP2 receptor (the target receptor of interest), using the FuGENE 6 Transfection reagent (Promega). After 6 hours incubation, the cell media was replaced with F12 medium supplemented with 10% FBS and 100 U/ml Pen-Strep. 24 hours after transfection, cells were harvested and seeded at a density of 3000 cells/well in a 384 well plate to perform the cAMP assay, using the LANCE Ultra cAMP assay kit (PerkinElmer).
For each test compound of interest, 10 nl/well of serially diluted test compound was added to each well, resulting in a range of 10 serially diluted compound concentrations from 10000 nM to 0.038 nM, with duplicate wells for each concentration. Plates were then centrifuged at 1000 rpm for 1 min, agitated at 600 rpm at R.T. for 2 min, and incubated at 25° C. for 5 min. The reference agonist, prostaglandin E2 (MCE), was added to each well at the appropriate concentration to reach its EC80 value. Plates were then centrifuged at 1000 rpm for 1 min, agitated at 600 rpm at R.T. for 2 min, and incubated at 25° C. for 30 min.
To measure levels of cAMP, 5 μl/well of Eu-cAMP working solution and 5 μl/well of Ulight-anti-cAMP working solution were added to each well, and plate was centrifuged at 1000 rpm for 1 min, agitated at 600 rpm at R.T. for 2 min, and incubated at 25° C. for 15 min. Levels of TR-FRET fluorescence were measured in each well using an EnVision microplate reader (excitation wavelength=337 nm and emission wavelength=615 and 665 nm). A dose-response curve was prepared by plotting percent inhibition for each compound concentration, and then IC50 was calculated by fitting a curve to the plotted values and extrapolating the IC50 concentration.
Potency data is grouped into categories of AA (IC50<100 nM); A (IC50=100 to 500 nM); B (IC50=500 nM to 1 μM); C (IC50=1 μM to 5 μM); and D (IC50>5 μM).

T1 sequence (P43116 whole entry): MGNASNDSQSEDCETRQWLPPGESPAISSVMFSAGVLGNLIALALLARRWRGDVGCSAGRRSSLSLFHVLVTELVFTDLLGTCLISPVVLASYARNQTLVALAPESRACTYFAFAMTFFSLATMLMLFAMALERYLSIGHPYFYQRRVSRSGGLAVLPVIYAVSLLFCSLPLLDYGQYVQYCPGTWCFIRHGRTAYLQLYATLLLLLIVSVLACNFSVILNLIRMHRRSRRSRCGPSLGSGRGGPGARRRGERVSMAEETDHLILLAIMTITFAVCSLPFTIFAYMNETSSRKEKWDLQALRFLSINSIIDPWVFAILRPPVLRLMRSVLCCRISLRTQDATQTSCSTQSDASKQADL

| Structure (SMILES) | half-life at 2 μM [1] [h] | microsomal CLint at 2 μM [1] [µL/min/mg] | half-life at 1 μM [2] [h] | microsomal CLint at 1 μM [2] [µL/min/mg] | IC50 [3] [nM] |
| --- | --- | --- | --- | --- | --- |
| COc1ccc(C(=O)N2CCC(COc3ccc(-c4ccc(C#N)cc4)cc3)(C(=O)O)C2)cc1 (centres unmarked) [Ref, reference compound] | 8.33 to 16.7 | 1 to 10 | 1.67 to 8.33 | 1 to 10 |  |
| COc1ccc(C(=O)N2CCC(COc3ccc(-c4ccc(C#N)cc4)cc3)(C(=O)NS(C)(=O)=O)C2)cc1 (centres unmarked) [Compound 4-19, 3-(((4′-cyano-[1,1′-biphenyl]-4-yl)oxy)methyl)-1-(4-methoxybenzoyl)-N-(methylsulfonyl)pyrrolidine-3-carboxamide] | > 16.7 | < 1 | > 16.7 | < 1 | < 100 |
| COc1ccc(C(=O)N2CCC(COc3ccc(-c4ccc(C#N)cc4)cc3)(C(=O)NS(=O)(=O)C(F)(F)F)C2)cc1 (centres unmarked) [Compound 4-24, 3-[({4′-cyano-[1,1′-biphenyl]-4-yl}oxy)methyl]-1-(4-methoxybenzoyl)-N-trifluoromethanesulfonylpyrrolidine-3-carboxamide] | 1.67 to 8.33 | 1 to 10 | 8.33 to 16.7 | 1 to 10 | 100 to 500 |
